Measurements as given in patent US20240059688A1, “CONOLIDINE ANALOGUES AS SELECTIVE ACKR3 MODULATORS FOR THE TREATMENT OF CANCER” (Luxembourg Institute of Health (LIH), priority 2020, published 2024).

What was measured:
ADRA2B = biological target: T1, ADRA2B (Homo sapiens, UniProt P18089); assay: GPCR β-arrestin screening (PathHunter gpcrMAX/orphanMAX), ADRA2B; format: cell-based; settings: conolidine 10 μM
T1 sequence (P18089 1-450): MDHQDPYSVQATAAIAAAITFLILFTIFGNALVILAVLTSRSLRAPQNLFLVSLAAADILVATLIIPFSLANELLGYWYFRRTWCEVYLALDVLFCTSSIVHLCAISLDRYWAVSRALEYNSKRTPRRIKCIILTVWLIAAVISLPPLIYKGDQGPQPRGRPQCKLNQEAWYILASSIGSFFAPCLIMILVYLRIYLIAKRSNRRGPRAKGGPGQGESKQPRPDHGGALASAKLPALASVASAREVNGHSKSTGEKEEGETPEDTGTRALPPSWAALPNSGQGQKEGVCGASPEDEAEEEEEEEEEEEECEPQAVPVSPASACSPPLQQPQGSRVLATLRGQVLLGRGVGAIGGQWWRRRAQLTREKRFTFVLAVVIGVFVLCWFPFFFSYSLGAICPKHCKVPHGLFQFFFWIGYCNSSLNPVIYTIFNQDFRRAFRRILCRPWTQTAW
Method: (§1) In an effort to identify the target of conolidine among the GPCR family, we undertook a large scale screening program using a β-arrestin recruitment assay based on β-galactosidase complementation (PathHunter, DiscoverX). Over 240 receptors were tested for their ability to be activated or inhibited by conolidine (10 μM) (data not shown). These included 168 GPCRs from the gpcrMAX panel, covering over 60 distinct receptor families such as adrenergic, dopamine, P2Y or serotonin and 74 GPCRs from the orphanMAX panel.

ACKR3 = ACKR3 (Homo sapiens, UniProt P25106); assay: GPCR β-arrestin screening (PathHunter gpcrMAX/orphanMAX), ACKR3; format: cell-based; settings: conolidine 10 μM; over 240 receptors tested
Method: as §1

ACKR3, sequence (P25106 whole entry): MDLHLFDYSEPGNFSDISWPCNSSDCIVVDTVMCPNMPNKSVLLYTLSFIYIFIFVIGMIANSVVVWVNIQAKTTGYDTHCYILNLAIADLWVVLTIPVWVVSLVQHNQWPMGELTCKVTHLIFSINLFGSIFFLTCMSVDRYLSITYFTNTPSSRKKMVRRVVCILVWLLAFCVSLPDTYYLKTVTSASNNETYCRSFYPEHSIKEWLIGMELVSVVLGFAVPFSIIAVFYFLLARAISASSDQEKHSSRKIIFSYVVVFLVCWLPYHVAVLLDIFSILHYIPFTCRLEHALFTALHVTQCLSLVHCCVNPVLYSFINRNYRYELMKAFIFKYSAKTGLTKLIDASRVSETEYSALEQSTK

In the case of `C/C=C1/CN2CC[C@H]1C(=O)c1[nH]c3ccccc3c1C2` [WW-1, (4E,5R)-4-ethylidene-1,4,5,7-tetrahydro-2,5-ethanoazocino[4,3-b]indol-6(3H)-one], the “activity towards ADRA2B in GPCR screening” value (ADRA2B) is reported as “No activity was detected” and the “response of ACKR3 in GPCR screening” value (ACKR3) is reported as “most responsive receptor”.
